Laboratory results: patent US20140315889A1, “HYDROXAMATE DERIVATIVES FOR HDAC INHIBITOR, AND THE PHARMACEUTICAL COMPOSITION COMPRISING THEREOF” (CHONG KUN DANG PHARMACEUTICAL CORP., priority 2011, published 2014)
pIC50: −log10 of the molar value. Read-outs that look alike come from different tables or passages of the source.

Legend:
Format in all cases: biochemical
[1] = biological target: T1, human recombinant HDAC6 (Homo sapiens, UniProt Q9UBN7); experiment: HDAC enzyme activity test, HDAC6; settings: for Selectivity for HDAC6, HD1/HD6: ratio HDAC1 IC50 / HDAC6 IC50
T1 construct: purchased Calibiochem Co. (so in the source) 382180
T1 sequence (Q9UBN7 1-1215): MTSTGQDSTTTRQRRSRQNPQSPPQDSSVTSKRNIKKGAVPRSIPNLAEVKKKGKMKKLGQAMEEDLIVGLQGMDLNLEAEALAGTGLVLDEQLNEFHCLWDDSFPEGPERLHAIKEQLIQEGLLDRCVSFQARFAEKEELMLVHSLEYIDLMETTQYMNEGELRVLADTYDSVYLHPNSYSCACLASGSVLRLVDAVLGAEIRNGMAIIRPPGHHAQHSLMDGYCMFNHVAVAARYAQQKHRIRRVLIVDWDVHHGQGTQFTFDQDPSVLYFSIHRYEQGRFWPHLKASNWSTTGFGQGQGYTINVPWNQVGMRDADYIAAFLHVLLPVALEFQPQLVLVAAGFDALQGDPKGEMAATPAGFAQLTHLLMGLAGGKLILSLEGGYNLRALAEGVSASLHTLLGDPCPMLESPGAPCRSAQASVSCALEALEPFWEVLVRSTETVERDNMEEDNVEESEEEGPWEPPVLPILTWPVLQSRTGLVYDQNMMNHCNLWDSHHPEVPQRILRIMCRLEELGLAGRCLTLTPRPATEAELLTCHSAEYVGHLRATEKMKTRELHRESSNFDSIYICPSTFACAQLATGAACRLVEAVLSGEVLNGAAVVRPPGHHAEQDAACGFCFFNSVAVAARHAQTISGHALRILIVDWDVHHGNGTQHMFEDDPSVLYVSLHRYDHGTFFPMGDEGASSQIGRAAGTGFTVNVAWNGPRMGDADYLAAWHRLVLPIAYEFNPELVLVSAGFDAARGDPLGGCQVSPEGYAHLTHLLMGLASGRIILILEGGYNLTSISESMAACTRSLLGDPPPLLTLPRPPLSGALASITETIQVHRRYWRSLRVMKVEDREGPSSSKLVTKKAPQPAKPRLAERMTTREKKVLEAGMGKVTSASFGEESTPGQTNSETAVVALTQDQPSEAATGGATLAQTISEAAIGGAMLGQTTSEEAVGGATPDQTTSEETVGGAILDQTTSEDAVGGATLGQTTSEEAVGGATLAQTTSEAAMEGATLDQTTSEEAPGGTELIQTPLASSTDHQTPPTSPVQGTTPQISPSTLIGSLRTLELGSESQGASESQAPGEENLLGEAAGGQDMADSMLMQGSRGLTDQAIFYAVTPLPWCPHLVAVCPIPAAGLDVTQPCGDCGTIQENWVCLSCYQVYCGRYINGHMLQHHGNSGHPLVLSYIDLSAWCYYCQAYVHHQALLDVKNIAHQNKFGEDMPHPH
Description: (§1) Then, 0.3 μg of enzyme and 10 μM of substrate per well were added, reacted at 30° C. for 60 minutes. Thereto, Fluor de Lys® Developer II (BML-KI176) was added and reacted for 30 minutes. […] From the data, the respective IC50 were calculated by GraphPad Prism 4.0 program.

[2] = biological target: T2, HDAC8 (Homo sapiens, UniProt Q9BY41); experiment: HDAC enzyme activity test, HDAC8; settings: Table 11, eleven HDAC isozymes; read-out: Inhibition ability (IC50) against HDAC8
T2 sequence (Q9BY41 1-377): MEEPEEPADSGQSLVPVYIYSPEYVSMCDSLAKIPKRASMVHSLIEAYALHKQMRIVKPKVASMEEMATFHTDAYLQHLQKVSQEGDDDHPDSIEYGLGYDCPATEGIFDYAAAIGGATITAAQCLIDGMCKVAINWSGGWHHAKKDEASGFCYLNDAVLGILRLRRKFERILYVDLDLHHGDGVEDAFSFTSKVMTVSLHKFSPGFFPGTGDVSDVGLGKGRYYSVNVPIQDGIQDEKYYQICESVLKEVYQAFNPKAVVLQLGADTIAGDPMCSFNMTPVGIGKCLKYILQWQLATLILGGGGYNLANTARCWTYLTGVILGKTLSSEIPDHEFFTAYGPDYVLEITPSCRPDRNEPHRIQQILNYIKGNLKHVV
Description: as §1

[3] = biological target: T3, Human recombinant HDAC1 (Homo sapiens, UniProt Q13547); experiment: HDAC enzyme activity test, HDAC1
T3 construct: purchased Enzo Life Science Co. (named for the kit; assigned to the enzyme from the BML- catalogue prefix) BML-SE456
T3 sequence (Q13547 whole entry): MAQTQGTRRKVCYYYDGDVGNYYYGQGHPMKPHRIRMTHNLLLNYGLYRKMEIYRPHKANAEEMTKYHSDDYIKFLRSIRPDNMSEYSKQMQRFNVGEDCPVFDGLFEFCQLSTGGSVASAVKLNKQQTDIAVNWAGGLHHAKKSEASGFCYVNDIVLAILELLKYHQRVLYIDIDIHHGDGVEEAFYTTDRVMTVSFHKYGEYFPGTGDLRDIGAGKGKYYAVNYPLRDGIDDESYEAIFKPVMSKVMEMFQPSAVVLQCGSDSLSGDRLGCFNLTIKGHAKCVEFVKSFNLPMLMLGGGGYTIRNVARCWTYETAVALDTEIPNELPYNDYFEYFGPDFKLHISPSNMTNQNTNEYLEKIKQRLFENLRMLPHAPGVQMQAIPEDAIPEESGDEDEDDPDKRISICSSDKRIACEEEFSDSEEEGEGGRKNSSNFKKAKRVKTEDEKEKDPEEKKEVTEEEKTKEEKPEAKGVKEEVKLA
Description: as §1

[4] = biological target: T4, HDAC11 (Homo sapiens, UniProt Q96DB2); experiment: HDAC enzyme activity test, HDAC11; settings: Table 11, eleven HDAC isozymes; read-out: Inhibition ability (IC50) against HDAC11
T4 sequence (Q96DB2 1-347): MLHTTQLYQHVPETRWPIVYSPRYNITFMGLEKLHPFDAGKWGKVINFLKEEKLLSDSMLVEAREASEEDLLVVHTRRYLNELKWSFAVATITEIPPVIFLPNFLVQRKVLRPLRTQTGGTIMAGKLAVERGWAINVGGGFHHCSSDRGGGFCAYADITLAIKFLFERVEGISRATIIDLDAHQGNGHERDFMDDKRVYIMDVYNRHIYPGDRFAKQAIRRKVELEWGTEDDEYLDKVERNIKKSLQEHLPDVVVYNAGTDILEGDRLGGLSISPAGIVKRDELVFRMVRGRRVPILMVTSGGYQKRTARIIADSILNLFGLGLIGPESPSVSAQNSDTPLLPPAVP
Description: as §1

[5] = biological target: HDAC9 (Homo sapiens, UniProt Q9UKV0); experiment: HDAC enzyme activity test, HDAC9; settings: Table 11, eleven HDAC isozymes; read-out: Inhibition ability (IC50) against HDAC9
Sequence of HDAC9 (Q9UKV0 whole entry, species assumed): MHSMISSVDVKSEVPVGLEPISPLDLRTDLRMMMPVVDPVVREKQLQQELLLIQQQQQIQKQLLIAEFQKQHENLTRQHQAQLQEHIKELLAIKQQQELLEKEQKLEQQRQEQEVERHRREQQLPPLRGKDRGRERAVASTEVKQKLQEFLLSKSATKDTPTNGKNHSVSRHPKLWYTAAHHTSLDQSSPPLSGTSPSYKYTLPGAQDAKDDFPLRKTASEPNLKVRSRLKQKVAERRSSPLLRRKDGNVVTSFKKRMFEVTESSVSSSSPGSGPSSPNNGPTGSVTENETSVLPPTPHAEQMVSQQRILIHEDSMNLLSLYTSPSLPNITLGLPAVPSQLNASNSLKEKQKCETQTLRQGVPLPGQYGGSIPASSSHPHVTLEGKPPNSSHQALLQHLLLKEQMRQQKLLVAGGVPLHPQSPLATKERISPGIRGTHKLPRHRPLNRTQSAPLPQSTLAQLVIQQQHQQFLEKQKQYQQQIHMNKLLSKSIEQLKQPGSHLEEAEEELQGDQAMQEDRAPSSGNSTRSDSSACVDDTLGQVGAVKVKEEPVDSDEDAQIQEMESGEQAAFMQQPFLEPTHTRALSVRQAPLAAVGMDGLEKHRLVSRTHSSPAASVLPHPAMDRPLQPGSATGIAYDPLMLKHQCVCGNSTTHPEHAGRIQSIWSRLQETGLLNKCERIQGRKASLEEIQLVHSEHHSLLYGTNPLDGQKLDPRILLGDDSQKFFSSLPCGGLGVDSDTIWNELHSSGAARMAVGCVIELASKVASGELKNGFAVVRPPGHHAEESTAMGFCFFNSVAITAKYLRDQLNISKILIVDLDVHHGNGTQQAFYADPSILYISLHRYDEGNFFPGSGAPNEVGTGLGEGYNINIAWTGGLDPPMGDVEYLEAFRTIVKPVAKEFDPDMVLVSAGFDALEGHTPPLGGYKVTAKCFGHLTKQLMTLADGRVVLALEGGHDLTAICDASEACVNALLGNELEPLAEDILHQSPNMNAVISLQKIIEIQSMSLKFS
Description: as §1

[6] = Table 11, eleven HDAC isozymes, read-out: Inhibition ability (IC50) against HDAC6
[7] = Table 12, read-out: Inhibition ability (IC50) HDAC6
[8] = Table 12, read-out: Inhibition ability (IC50) HDAC1

| SMILES | pIC50 [1, 6] | Selectivity for HDAC6, HD1/HD6 ([1]; Table 12) | pIC50 [1, 7] | pIC50 [2] | pIC50 [3, 8] | pIC50 ([3]; Table 11, eleven HDAC isozymes, read-out: Inhibition ability (IC50) against HDAC1) | pIC50 [4] | pIC50 [5] |
| --- | --- | --- | --- | --- | --- | --- | --- | --- |
| CC1(C)CC(=O)c2c(n(CCCCCC(=O)NO)c3ccc(F)cc23)C1 [Compound 55, 6-(6-fluoro-2,2-dimethyl-4-oxo-1,2,3,4-tetrahydrocarbazol-9-yl)-N-hydroxyhexanamide] | 6.64 | 72.5 | 7.25 | 6.30 | 5.39 | – | – | – |
| CC1(C)CC(=O)c2c(n(Cc3ccc(C(=O)NO)cc3)c3ccccc23)C1 [Compound 19, 4-((2,2-dimethyl-4-oxo-1,2,3,4-tetrahydrocarbazol-9-yl)methyl)-N-hydroxybenzamide] | 7.45 | 201.8 | 7.68 | 6.10 | 5.37 | 4.74 | 4.65 | 4.52 |
| O=C(NO)c1ccc(Cn2c3ccc(F)cc3c3c(=O)[nH]ccc32)cc1 [Compound 305, 4-((8-fluoro-1-oxo-1,2-dihydropyrido[4,3-b]indol-5-yl)methyl)-N-hydroxybenzamide] | – | 980.4 | 8.60 | – | 5.61 | – | – | – |
| O=C(NO)c1ccc(Cn2c3c(c4cc(F)ccc42)C(=O)C(CN2CCOCC2)CC3)cc1 (stereo not shown) [Compound 141, 4-((6-fluoro-3-(morpholinomethyl)-4-oxo-1,2,3,4-tetrahydrocarbazol-9-yl)methyl)-N-hydroxybenzamide] | – | 850.7 | 8.31 | – | 5.38 | – | – | – |
| Cc1c2c(n(CCCCCC(=O)NO)c1C)CC(C)(C)CC2=O [Compound 350, N-hydroxy-6-(2,3,6,6-tetramethyl-4-oxo-4,5,6,7-tetrahydro-1H-indol-1-yl)hexanamide] | – | 9.8 | 6.99 | – | 6.00 | – | – | – |
| CCN1CCN(CC2CCc3c(c4ccccc4n3Cc3ccc(C(=O)NO)cc3)C2=O)CC1 (stereo not shown) [Compound 112, 4-((3-((4-ethylpiperazin-1-yl)methyl)-4-oxo-1,2,3,4-tetrahydrocarbazol-9-yl)methyl)-N-hydroxy benzamide] | – | 310.6 | 7.83 | – | 5.34 | – | – | – |
| CN(C)CC1C(=O)c2c(n(Cc3ccc(C(=O)NO)cc3)c3ccccc23)CC1(C)C (stereo not shown) [Compound 129, 4-((3-((dimethylamino)methyl)-2,2-dimethyl-4-oxo-1,2,3,4-tetrahydrocarbazol-9-yl)methyl)-N-hydroxybenzamide] | – | 642.7 | 8.18 | – | 5.37 | – | – | – |
| CN1CCN(CCN2CCc3c(c4cc(F)ccc4n3Cc3ccc(C(=O)NO)cc3)C2=O)CC1 [Compound 287, 4-((8-fluoro-2-(2-(4-methylpiperazin-1-yl)ethyl)-1-oxo-1,2,3,4-tetrahydropyrido[4,3-b]indol-5-yl)methyl)-N-hydroxybenzamide] | – | 715.1 | 7.94 | – | 5.09 | – | – | – |
| CC1(C)CC(=O)c2c(n(CCCCCCC(=O)NO)c3c(Cl)cc(Cl)cc23)C1 [Compound 51, 7-(1,3-dichloro-7,7-dimethyl-5-oxo-5,6,7,8-tetrahydrocarbazol-9-yl)-N-hydroxyheptanamide] | – | 12.5 | 6.98 | – | 5.88 | – | – | – |
